# What was measured:
# [1] = system: Thrips; experiment: Thrips damage rating on cotton plants (Example 2); format: in vivo; details: Fibermax cotton variety 960, rating 1 = no damage, 5 = plant dead; for Thrips Damage Rating 3 weeks: 3 weeks after planting; for Thrips Damage Rating 4 weeks: 4 weeks after planting
# Source text: This example illustrates the effect of the compositions from Table 1 for cotton plants planted in soil known to have nematode (Rotylenchulus reniformis) pressure. FIGS. 4 and 5 illustrate the Thrips damage ratings at three and four weeks, respectively, after planting. FIG. 6 illustrates the plant height seven weeks after planting. The cotton plants utilized were commercially available Fibermax cotton variety 960.
# [2] = system: Thrips; experiment: Thrips damage rating on cotton plants (Example 1); format: in vivo; details: cotton Delta and Pineland variety 555, rating 1 = no damage, 5 = plant dead; for Thrips Damage Rating 3 weeks: 3 weeks after planting; for Thrips Damage Rating 4 weeks: 4 weeks after planting
# Source text: This example illustrates the effect of a composition of the invention on cotton plant damage and plant height for cotton plants planted in soil known to have nematode (Rotylenchulus reniformis) pressure. The cotton plants utilized were commercially available Delta and Pineland variety 555.
# The compositions described in Table 1 below were applied either as a seed treatment (Samples B, C, and E-G) or in furrow (Sample D) at the respective application rates set forth in Table 1.
SMILES,Thrips Damage Rating 3 weeks [1],Thrips Damage Rating 4 weeks [1],Thrips Damage Rating 3 weeks [2],Thrips Damage Rating 4 weeks [2]
"O=[N+]([O-])NC1=NCCN1Cc1ccc(Cl)nc1 [B, imidacloprid]",2.63,2.5,2,2.3
"O=[N+]([O-])NC1=NCCN1Cc1ccc(Cl)nc1 [E, imidacloprid]",2.88,3,2.25,2.4
"CNC(=O)O/N=C/C(C)(C)SC [Sample D, aldicarb]",2.5,2.1,1.13,1.5

# Reference: patent US20070099963A1, “Nematicidal compositions and methods” (priority 2005, published 2007)
